Counter-ions that a name gives are not always drawn.
Molecular target: T1, renin (Homo sapiens, UniProt P00797)
T1 sequence (P00797 67-406): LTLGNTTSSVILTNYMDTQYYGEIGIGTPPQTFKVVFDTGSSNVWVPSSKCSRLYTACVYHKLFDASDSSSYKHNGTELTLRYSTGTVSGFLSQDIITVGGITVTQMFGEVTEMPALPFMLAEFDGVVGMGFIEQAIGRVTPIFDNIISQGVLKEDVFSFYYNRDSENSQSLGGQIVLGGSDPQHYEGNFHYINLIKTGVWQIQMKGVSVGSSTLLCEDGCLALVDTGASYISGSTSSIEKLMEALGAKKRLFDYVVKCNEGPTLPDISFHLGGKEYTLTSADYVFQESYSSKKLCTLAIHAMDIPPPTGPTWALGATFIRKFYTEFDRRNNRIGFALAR
Assay: renin inhibition, IC50 (method not described)
Type: biochemical

Compound	IC50 [nM]
NCCCC[C@H](NC(=O)C[C@H](O)[C@H](CC1CCCCC1)NC(=O)[C@H](Cc1c[nH]cn1)NC(=O)[C@H](Cc1ccccc1)NC(=O)N1CCOCC1)C(=O)NCc1ccncc1 [Example 23, N-[(Morpholin-4-yl)carbonyl]Phe-His-ACHPA-Lys-NHCH2(pyridin-4-y1)]	12
CC(C)(C)OC(=O)N[C@@H](Cc1ccccc1)C(=O)N[C@@H](Cc1c[nH]cn1)C(=O)N[C@@H](CC1CCCCC1)[C@@H](O)CC(=O)N[C@@H](CN)C(=O)NCc1ccncc1 [Example 10, N^α-t-butoxycarbonyl-L-phenylalanyl-L-histidyl-(3S,4S)-4-amino-5-cyclohexyl-3-hydroxypentanoyl-L-2,4-diaminopropionyl-4-(aminomethyl)pyridine amide hydrochloride]	37
CC(C)(C)OC(=O)N[C@@H](Cc1ccccc1)C(=O)N[C@@H](Cc1c[nH]cn1)C(=O)N[C@@H](CC1CCCCC1)[C@@H](O)CC(=O)N[C@@H](CCCCN)C(=O)NCc1ccncc1 [Example 1, N^α-t-butoxycarbonyl-L-Phenylalanyl-L-histidyl-(3S,4S)-4-amino-5-cyclohexyl-3-hydroxypentanoyl-L-lysyl-4-(aminomethyl)pyridine amide hydrochloride]	38
CN(CCc1ccccn1)C(=O)[C@H](CCCCN)NC(=O)C[C@H](O)[C@H](CC1CCCCC1)NC(=O)[C@H](Cc1c[nH]cn1)NC(=O)[C@H](Cc1ccccc1)NC(=O)OC(C)(C)C [Example 5, N^α-t-butoxycarbonyl-L-phenylalanyl-L-histidyl-(3S,4S)-4-amino-5-cyclohexyl-3-hydroxypentanoyl-L-lysyl-2-(2-methylaminoethyl)-pyridinamide acetate]	225
CC(C)S(=O)(=O)N[C@@H](Cc1ccccc1)C(=O)N[C@@H](Cc1c[nH]cn1)C(=O)N[C@@H](CC1CCCCC1)[C@@H](O)CC(=O)N[C@@H](CCCCN)C(=O)NCC1CCNCC1 [Example 27, i-PrSO2-Phe-His-ACHPA-Lys-CH2(piperidin-4-yl)]	159
CC(C)(C)OC(=O)N[C@@H](Cc1ccccc1)C(=O)N[C@@H](Cc1c[nH]cn1)C(=O)N[C@@H](CC1CCCCC1)[C@@H](O)CC(=O)N[C@@H](CCCCN)C(=O)NCC1CCNCC1 [Example 2, N^α-t-butoxycarbonyl-L-phenylalanyl-L-histidyl-{3S,4S)-4-amino-5-cyclohexyl-3-hydroxy-pentanoyl-L-lysyl-4-(aminomethyl)-piperidinamide dihydrochloride]	338
CC(C)(C)OC(=O)N[C@@H](Cc1ccccc1)C(=O)N[C@@H](Cc1c[nH]cn1)C(=O)N[C@@H](CC1CCCCC1)[C@@H](O)CC(=O)N[C@@H](CCCCN)C(=O)N[C@H]1CCCCNC1=O [Example 9, N^α-t-butoxycarbonyl-L-phenylalanyl-L-histidyl-(3S,4S)-4-amino-5-cyclohexyl-3-hydroxypentanoyl-L-lysyl-L-3-amino-2-oxoazepine amide hydrochloride]	26.4
N^α-t-butoxycarbonyl-L-phenylalanyl-L-histidyl-(3S,4S)-4-amino-5-cyclohexyl-3-hydroxypentanoyl-L-lysyl-N-(2-aminoethyl)-morpholine amide dihydrochloride [Example 12]	68.9
CC(C)(C)OC(=O)NCCOC(=O)N[C@@H](Cc1ccccc1)C(=O)N[C@@H](Cc1c[nH]cn1)C(=O)N[C@@H](CC1CCCCC1)[C@@H](O)CC(=O)N[C@@H](CCCCN)C(=O)NCC1CCNCC1 [Example 26, Boc-NHCH2CH2OCO-Phe-His-ACHPA-Lys-NHCH2(piperidin-4-yl)]	39
COc1ccc(C[C@H](NC(=O)OC(C)(C)C)C(=O)N[C@@H](Cc2c[nH]cn2)C(=O)N[C@@H](CC2CCCCC2)[C@@H](O)CC(=O)N[C@@H](CCCCN)C(=O)NCc2ccncc2)cc1 [Example 6, N^α-t-butoxycarbonyl-O-methyl-L-tyrosyl-L-histidyl-(3S,4S)-4-amino-5-cyclohexyl-3-hydroxy-pentanoyl-L-lysyl-4-(aminomethyl)pyridine amide]	42
